One series has as its target T1, human factor Xa (Homo sapiens, UniProt P00742).
T1 construct: 25 μL human factor Xa (32 nM in 0.03 M tris, 0.15 M NaCl, 1 mg/mL HSA); purchased Enzyme Research Laboratories (South Bend, Ind., USA)
The series can be described thus: Enzyme inhibition assay: apparent association constant (Kass) for human factor Xa, chromogenic substrate hydrolysis. Type of series: biochemical. As to conditions: human factor Xa 3.2 nM, BzIleGluGlyArgpNA substrate, approximately inverse of Ki. As to the method: Human factor Xa and human thrombin are purchased from Enzyme Research Laboratories (South Bend, Ind., USA). Other proteases are from other commercial sources. Chromogenic para-nitroanilide peptide protease substrates are purchased from Midwest Biotech (Fishers, Ind., USA).
The binding affinities for human factor Xa are were measured as apparent association constants (Kass) derived from protease inhibition kinetics as described previously.^a,b,c,d The apparent Kass values are obtained using automated (BioMek-1000) dilutions of inhibitors (Kass determinations are performed in triplicate at each of four-eight inhibitor concentrations) into 96-well plates and chromogenic substrate hydrolysis rates determined at 405 nm using a Thermomax plate reader from Molecular Devices (San Francisco). For factor Xa inhibition, the assay protocol is: 50 μL buffer (0.06 M tris, 0.3 M NaCl, pH 7.4); 25 μL inhibitor test solution (in MeOH); 25 μL human factor Xa (32 nM in 0.03 M tris, 0.15 M NaCl, 1 mg/mL HSA); finally, 150 μL BzIleGluGlyArgpNA (0.3 mM in water) added within 2 min to start hydrolysis. Final [factor Xa] is 3.2 nM. [Free Xa] and [bound Xa] are determined from linear standard curves on the same plate by use of SoftmaxPro software for each inhibitor concentration and apparent Kass calculated for each inhibitor concentration which produced hydrolysis inhibition between 20% and 80% of the control (3.2 nM factor Xa): apparent Kass [E:I]/[Ef][If]=[Eb]/[Ef][I^o−Ib]. The apparent Kass values so obtained are approximately the inverse of the Ki for the respective inhibitors [1/appKass=app Ki]. The variability of mean apparent Kass values determined at the single substrate concentration is +/−15%. The assay system Km was measured as 0.347+/−0.031 mM [n=4]; and Vmax was 13.11+/−0.76 μM/min.
T1 sequence (P00742 235-488 limits assumed): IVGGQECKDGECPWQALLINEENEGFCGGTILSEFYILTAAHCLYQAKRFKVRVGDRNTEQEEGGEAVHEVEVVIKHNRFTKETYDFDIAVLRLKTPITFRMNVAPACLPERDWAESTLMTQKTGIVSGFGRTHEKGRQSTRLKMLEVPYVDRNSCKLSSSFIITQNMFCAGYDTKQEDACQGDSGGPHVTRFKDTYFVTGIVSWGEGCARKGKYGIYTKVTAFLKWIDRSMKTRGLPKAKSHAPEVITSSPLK
T1 sequence (P00742 41-179 partner limits assumed): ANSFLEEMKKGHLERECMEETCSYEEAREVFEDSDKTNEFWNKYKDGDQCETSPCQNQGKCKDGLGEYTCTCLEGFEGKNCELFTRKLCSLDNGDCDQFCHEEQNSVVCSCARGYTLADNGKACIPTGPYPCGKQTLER
Regarding `COc1ccc(C(=O)N[C@@H](C(=O)N2CCC(C3CCN(C)CC3)CC2)C(C)C)cc1.Cl` [Example 6, 1-(4-Methoxybenzoyl-D-valinyl)-4-(1-methylpiperidin-4-yl)-piperidine Hydrochloride], the Kass result is listed as “about 20 ×10^6 L/mole”.
On the same count and under the same terms, the result for `CC(C)[C@@H](NC(=O)c1ccc2cc[nH]c2c1)C(=O)N1CCC(C2CCN(C)CC2)CC1.Cl` [Example 9, 1-(Indole-6-carbonyl-D-valinyl)-4-(1-methylpiperidin-4-yl)piperidine Hydrochloride] reads approximately 8.9e+07 L/mol; that for `CC(C)[C@@H](NC(=O)c1cc2cc(Cl)ccc2[nH]1)C(=O)N1CCN(C2CCN(C)CC2)CC1.Cl` [Example 18, 1-(5-Chloroindole-2-carbonyl-D-valinyl)-4-(1-methylpiperidin-4-yl)piperazine Hydrochloride], approximately 3.58e+08 L/mol.

Tested on in a further series: not given
Experiment: not given
Conditions: not given
With `C#CC[C@@H](NC(=O)c1cc2cc(Cl)ccc2[nH]1)C(=O)N1CCN(C2CCN(C)CC2)CC1.Cl`, the melting point (usually the temperature of the solid-liquid transition) is 174 to 185 °C (dec.).
Still for that read-out and setting: to `C#CC[C@@H](NC(=O)c1ccc2cc[nH]c2c1)C(=O)N1CCN(C2CCN(C)CC2)CC1.Cl` belongs 170 to 180 °C (dec.).
The same measure, in the same setting: to `C#CC[C@@H](NC(=O)c1cc2ccc(Cl)cc2s1)C(=O)N1CCN(C2CCN(C)CC2)CC1.Cl` belongs 115 to 135 °C (dec.); to `C=CC[C@@H](NC(=O)c1ccc2cc[nH]c2c1)C(=O)N1CCN(C2CCN(C)CC2)CC1.Cl`, 110 to 115 °C (dec.); to `C=CC[C@@H](NC(=O)c1cc2ccc(Cl)cc2s1)C(=O)N1CCN(C2CCN(C)CC2)CC1.Cl`, 130 to 135 °C (dec.).
Take `C=CC[C@@H](NC(=O)c1cc2cc(Cl)ccc2[nH]1)C(=O)N1CCN(C2CCN(C)CC2)CC1.Cl`: the melting point is 170 to 175 °C (dec.).

The values are drawn from patent publication US7265121B2, “Chemical compounds” (Eli Lilly and Company, priority 2001, dated 2007).
